Results from patent US6517836B1, “Nitrophenylaziridine compounds and their use as prodrugs” (Auckland Uniservices Limited, priority 1998, dated 2003).

Key:
[1] = test system: Chinese hamster fibroblast NR− line (T78-1), V79/4 transfected with an empty shuttle vector; experiment: Cytotoxicity, 18 h drug exposure, V79 NR− line (T78-1); format: cell-based; conditions: Cricetulus griseus; T78-1 cells, 18 h drug exposure; read-out: V-79 NR− IC50
From the text: (§1) The Chinese hamster fibroblast NR− line (T78-1) is a V79/4 Chinese hamster fibroblast transfected with an empty shuttle vector, while the NR+ line (T79-A3) is the corresponding NR transfectant. The human colon carcinoma NR− line (WIDR) is wild-type, while the NR+ line (WC14 10) is the corresponding NR transfectant. The human ovarian carcinoma NR− line (SKOV3) is wild-type, while the NR+ line (SC3.2) is the corresponding NR transfectant. EMT6 is a mouse mammary carcinoma line, and EN2A is the NR-transformed counterpart.

[2] = test system: Chinese hamster fibroblast NR+ line (T79-A3), NR transfectant; experiment: Cytotoxicity, 18 h drug exposure, V79 NR+ line (T79-A3); format: cell-based; conditions: Cricetulus griseus, Fibroblast; T79-A3 cells, 18 h drug exposure; read-out: V-79 NR+ IC50
From the text: as §1

[3] = test system: human colon carcinoma NR− line (WIDR), wild-type; experiment: Cytotoxicity, 18 h drug exposure, WiDr NR− line; format: cell-based; conditions: Homo sapiens; WIDR cells, 18 h drug exposure; read-out: WiDr NR− IC50
From the text: as §1

[4] = test system: human colon carcinoma NR+ line (WC14 10), NR transfectant; experiment: Cytotoxicity, 18 h drug exposure, WiDr NR+ line (WC14 10); format: cell-based; conditions: Homo sapiens, WiDr; WC14 10 cells, 18 h drug exposure; read-out: WiDr NR+ IC50
From the text: as §1

[5] = test system: human ovarian carcinoma NR− line (SKOV3), wild-type; experiment: Cytotoxicity, 18 h drug exposure, SKOV3 NR− line; format: cell-based; conditions: Homo sapiens, SK-OV-3; SKOV3 cells, 18 h drug exposure; read-out: SKOV NR− IC50
From the text: as §1

[6] = test system: human ovarian carcinoma NR+ line (SC3.2), NR transfectant; experiment: Cytotoxicity, 18 h drug exposure, SKOV NR+ line (SC3.2); format: cell-based; conditions: Homo sapiens; SC3.2 cells, 18 h drug exposure; read-out: SKOV NR+ IC50
From the text: as §1

[7] = test system: EMT6 mouse mammary carcinoma line; experiment: Cytotoxicity, 18 h drug exposure, EMT6 NR− line; format: cell-based; conditions: Mus musculus; EMT6 cells, 18 h drug exposure; read-out: EMT6 NR− IC50
From the text: as §1

[8] = test system: EN2A, NR-transformed counterpart of EMT6; experiment: Cytotoxicity, 18 h drug exposure, EMT6 NR+ line (EN2A); format: cell-based, mouse; conditions: Mus musculus, EMT6; EN2A cells, 18 h drug exposure; read-out: EMT6 NR+ IC50
From the text: as §1

With `NC(=O)c1cc([N+](=O)[O-])c(N2CC2)c([N+](=O)[O-])c1` [Compound 19, 4-(Aziridin-1-yl)-3,5-dinitrobenzamide] the IC50 [1] was greater than 20 µM, the IC50 [2] was greater than 20 µM and the IC50 [3] was greater than 20 µM. The IC50 [4] was greater than 20 µM, the IC50 [5] was greater than 20 µM and the IC50 [6] was greater than 20 µM. It also gave an IC50 [7] greater than 20 µM, an IC50 [8] greater than 20 µM and a melting point of 228 to 231 °C.
